Read-outs that look alike come from different tables or passages of the source.
What was measured:
[1] = tested on: λD-Acid:λD-Base association; experiment: Titration of λD-Acid:λD-Base phage association by free competitors (loss of double resistant multilysogen formation); format: binding; conditions: for concentration found to inhibit the λD-Acid:λD-Base interaction: free amino acid; for IC50, inhibition of Acid/Base association: MOI of 0.0025, aptamer 0.001 μM to 5 μM, FIG. 6; for Kd: free synthetic peptide competing with aptamer interaction, read-out: apparent KD (concentration of free peptide that results in an IC50); for cross-inhibition of λD-Acid:λD-Base: non-partner free proteins
Protocol: Lambda display phages are used to co-infect cells at an MOI of 0.0025. In the presence of increasing concentrations of the Acidic (triangles) or Basic (square) Aptamer (0.001 μM to 5 μM), titration of Acid/Base association is scored by the loss of double resistant multilysogen formation. The point representing the maximum number of lysogens for this given MOI.
(§1) Display phages are assayed for their ability to associate with other phages bearing a potential binding partner, with a non-binding partner and with a non-display D vector phage (i.e. λA2 and λA3). The production of double antibiotic resistant (Cml^r/Kan^r) multilysogen E. coli LE392 is used to mark positive fusion D display protein-protein interaction. First, the phages are combined to yield a chosen MOI (a typical initial range is 0.002-0.04), and allowed to associate for 5 minutes at room temperature (RT) prior to dilution with 220 uL of Salted Association Buffer (SAB; 20 mM Tris.HCLpH7.4, 10 mM CaCl2, 10 mM MgCl2 and 100 mM NaCl). After 10 minutes at room temperature, 1×10^8 of fresh log-phase E. coli LE392 recovered in [LB+0.4% maltose+10 mM CaCl2] is added. Phage-phage association, co-infection and antibiotic gene expression are allowed to proceed for 45 min-1 h at RT, followed by plating on agar supplemented with 10^ug/mL Cml+30^ug/mL Kan. Plates are incubated overnight at 32° C. for lysogen formation.

[2] = tested on: λD-CUE:λD-Ubiquitin association; experiment: Titration of λD-CUE:λD-Ubiquitin phage association by free proteins (loss of double resistant multilysogen formation); format: binding; conditions: for titration of λD-CUE:λD-Ubiquitin by non-partner peptides: acidic or basic aptamers
Protocol: Lambda display phages are used to co-infect cells at an MOI of 0.04. In the presence of increasing concentrations of the wtUbiquitin (diamonds), wt CUE (squares) or mutant CUEM419D (triangles) protein is added to the phage pair, and positive λD-CUE:λD-Ubiquitin association is scored by the loss of double resistant multilysogen formation. The results are tabulated as the number of colonies counted, with the point representing the maximum number of lysogens for this given MOI.
as §1

CUE = target: T1, CUE (Saccharomyces cerevisiae, UniProt P54787); conditions: CUE binds itself via an alpha helix interface; read-out: Kd (dimerization); cited from earlier work
T1 construct: The CUE domain (50 amino acid residues), as characterized by the conserved MFP and LL motifs
T1 sequence (P54787 408-451 limits assumed): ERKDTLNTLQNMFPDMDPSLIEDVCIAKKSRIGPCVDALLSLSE

monoubiquitin = monoubiquitin (Homo sapiens, UniProt P0CG47); conditions: cited from earlier work
E. coli LE392 cells = experiment: Protein association assay: lysogen formation after infection with vector or display phages; format: cell-based; conditions: single input phage, MOI 0.1
Protocol: as §1

For `N=C(N)NCCC[C@H](N)C(=O)O` [Arginine], the “concentration found to inhibit the λD-Acid:λD-Base interaction” value [1] was 4.6 mM.

With GRGRGRGR [Basic Aptamer, [Gly-Arg]4] the “IC50, inhibition of Acid/Base association” value [1] was ~0.01 µM, the Kd [1] was 10 nM and the “titration of λD-CUE:λD-Ubiquitin by non-partner peptides” value [2] was “nor is λD-CUE:λD-Ubiquitin titrated”.

With “CUEM419D: non-binding mutant CUE protein (KKIEENERKDTLNTLQNDFPDMDPSLIEDVCIAKKSRIGPCVDALLSLSE)” the “cross-inhibition of λD-Acid:λD-Base” value [1] was “no cross-inhibition”, the “titration point of λD-CUE:λD-Ubiquitin association” value ([2]; MOI of 0.04, FIG. 7) was “no titration point” and the “ability to challenge the λD-CUE:λD-Ubiquitin interaction” value ([2]; even at a concentration of 1 mM) was “unable to challenge”.

In the case of “wt CUE: free wild type CUE domain (50 amino acids) of Vsp9p (KKIEENERKDTLNTLQNMFPDMDPSLIEDVCIAKKSRIGPCVDALLSLSE)”, the “cross-inhibition of λD-Acid:λD-Base” value [1] is given as “no cross-inhibition”, the Kd (CUE) is given as 1 mM and the Kd (monoubiquitin; CUE as a dimer (dimericCue:Ubiquitin), read-out: apparent KD, CUE binding Ubiquitin) is given as 1.2 µM. The Kd (monoubiquitin; CUE as a monomer, read-out: KD, CUE binding monoubiquitin) was 20 µM and the Kd ([2]; free protein, read-out: apparent KD, competition of λD-Cue:λD-Ubiquitin pair) was 2 nM.

In the case of `N[C@@H](CCC(=O)O)C(=O)O` [Glutamic acid], the “concentration found to inhibit the λD-Acid:λD-Base interaction” value [1] is reported as 0.679 mM.

In the case of GEGEGEGE [Acidic Aptamer, [Gly-Glu]4], the “IC50, inhibition of Acid/Base association” value [1] is reported as ~0.01 µM, the Kd [1] is reported as 10 nM and the “titration of λD-CUE:λD-Ubiquitin by non-partner peptides” value [2] is reported as “nor is λD-CUE:λD-Ubiquitin titrated”.

For Ubiquitin, the “Number of Cml^r/Kan^r Cells” value (E. coli LE392 cells) was 0 and the “Number of Kan^r Cells” value (E. coli LE392 cells) was 3 × 10^6.
